According to the C3SDB collision cross section collection:
Each block holds one compound with its values, some of them ahead of it.

What was measured:
[1] = instrument: TW, calibrated with phosphatidylcholines (ESI+) and phosphatidylethanolamines (ESI-), doubly charged cardiolipins calibrated with poly-DL-…
[2] = instrument: TW, calibrated with polyalanine
[3] = [M+H]+; instrument: TW; calibrated with phosphatidylcholines (ESI+) and phosphatidylethanolamines (ESI-)
[4] = [M+H]+; instrument: DT; single field
[5] = instrument: DT, single field, calibrated with Agilent tune mix (Agilent)
[6] = [M+Na]+; instrument: DT; stepped-field

SMILES: CCCCCCCCCCCCCCC(=O)OC[C@@H](O)COP(=O)(O)OCC(O)CO (stereo partly specified) [LPG(15:0)]
- collision cross section (N2) ([1]; [M-H]-): 209.66 Å²

SMILES: CCCCCCCCCCCCCCCC(=O)O[C@H](CO)COP(=O)(O)OCC(O)CO (stereo partly specified) [LPG(16:0)]
- collision cross section (N2) ([1]; [M-H]-): 213.25 Å²

SMILES: CCCCCC/C=C/CCCCCCCC(=O)O[C@H](CO)COP(=O)(O)OCC(O)CO (stereo partly specified) [LPG(16:1)]
- collision cross section (N2) ([1]; [M-H]-): 209.98 Å²

SMILES: CCCCCCCC/C=C/CCCCCCCC(=O)O[C@H](CO)COP(=O)(O)OCC(O)CO (stereo partly specified) [LPG(18:1)]
- collision cross section (N2) ([1]; [M-H]-): 217.26 Å²

SMILES: OC[C@H]1OC(O)[C@@H](O)[C@@H](O)[C@@H]1O (stereo partly specified) [Mannose]
- collision cross section (N2) ([2]; [M+Na]+): 138 Å²

SMILES: C[C@@](O)(CCO)CC(=O)O [Mevalonic acid]
- collision cross section (N2) ([2]; [M+Na]+): 128 Å²

SMILES: NC(=O)c1cccnc1 [Niacinamide]
- collision cross section (N2) ([2]; [M+H]+): 118 Å²

SMILES: CCCCCCCCCCCCCCCC(=O)OCC(COP(=O)(O)O)OC(=O)CCCCCCCC1CC1CCCCCCCC (stereo unspecified) [PA(35:1)]
- collision cross section (N2) ([1]; [M-H]-): 258.7 Å²

SMILES: CCCCCC/C=C\CCCCCCCC(=O)OCC(COP(=O)(O)O)OC(=O)CCCCCCCC1CC1CCCCCCCC (stereo unspecified) [PA(35:2)]
- collision cross section (N2) ([1]; [M-H]-): 256.82 Å²

SMILES: CCCCCC/C=C\CCCCCCCC(=O)OCC(COP(=O)(O)OCCN)OC(=O)CCCCCCCCCCCCCCC (stereo unspecified) [PE(32:1)]
- collision cross section (N2) ([1]; [M+H]+): 268.72 Å²
- collision cross section (N2) ([1]; [M-H]-): 256.09 Å²

SMILES: CCCCCCCCCCCCCCCC(=O)OCC(COP(=O)(O)OCCN)OC(=O)CCCCCCCC1CC1CCCCCCCC (stereo unspecified) [PE(35:1)]
- collision cross section (N2) ([1]; [M+H]+): 279.52 Å²
- collision cross section (N2) ([1]; [M-H]-): 267.54 Å²

SMILES: CCCCCCCCCCCCCCCC(=O)OCC(COP(=O)(O)OCC(O)CO)OC(=O)CCCCCCCC1CC1CCCC (stereo unspecified) [PG(31:1)]
- collision cross section (N2) ([1]; [M+Na]+): 273.08 Å²
- collision cross section (N2) ([1]; [M-H]-): 259.19 Å²

SMILES: CCCCCC/C=C\CCCCCCCC(=O)OCC(COP(=O)(O)OCC(O)CO)OC(=O)CCCCCCCC1CC1CCCCCC (stereo unspecified) [PG(33:2)]
- collision cross section (N2) ([1]; [M+Na]+): 275.67 Å²
- collision cross section (N2) ([1]; [M-H]-): 264.54 Å²

SMILES: CCCCCCCC/C=C\CCCCCCCC(=O)OCC(COP(=O)(O)OCC(O)CO)OC(=O)CCCCCCC/C=C\CCCCCCCC (stereo unspecified) [PG(36:2)]
- collision cross section (N2) ([1]; [M+Na]+): 283.87 Å²
- collision cross section (N2) ([1]; [M-H]-): 275.05 Å²

SMILES: C=C(OP(=O)(O)O)C(=O)O [Phosphoenolpyruvate]
- collision cross section (N2) ([2]; [M+Na]+): 131 Å²

SMILES: CCCCCCCCCCCCC=CC[C@@H](O)[C@H](COP(=O)([O-])OCC[N+](C)(C)C)NC(=O)CC=CCCCCCCCCCCCCCCCCCCCC [SM(42:2)]
- collision cross section (N2) [4]: 305.54 Å²
- collision cross section (N2) [6]: 308.2 Å²
- collision cross section (N2) ([5]; [M+H]+): 304.2 Å²
- collision cross section (N2) ([5]; [M+Na]+): 304.4 Å²

SMILES: C[C@@H](O)[C@H](N)C(=O)O [Threonine]
- collision cross section (N2) ([2]; [M+H]+): 122 Å²

The next lines start with the values.

- collision cross section (N2) ([1]; [M-H]-): 213.68 Å²
SMILES: CCCCCCC1CC1CCCCCCCC(=O)O[C@H](CO)COP(=O)(O)OCC(O)CO (stereo partly specified) [LPG(17:1)]

- collision cross section (N2) ([2]; [M+H]+): 128 Å²
SMILES: CC(C)C[C@H](N)C(=O)O [Leucine]

- collision cross section (N2) ([1]; [M-H]-): 245.76 Å²
SMILES: CCCCCCCCCCCCCCCC(=O)OCC(COP(=O)(O)O)OC(=O)CCCCCCCC1CC1CCCC (stereo unspecified) [PA(31:1)]

- collision cross section (N2) ([1]; [M-H]-): 247.47 Å²
SMILES: CCCCCC/C=C\CCCCCCCC(=O)OCC(COP(=O)(O)O)OC(=O)CCCCCCC/C=C\CCCCCC (stereo unspecified) [PA(32:2)]

- collision cross section (N2) ([1]; [M-H]-): 252.33 Å²
SMILES: CCCCCCCCCCCCCCCC(=O)OCC(COP(=O)(O)O)OC(=O)CCCCCCCC1CC1CCCCCC (stereo unspecified) [PA(33:1)]

- collision cross section (N2) [3]: 278 Å²
- collision cross section (N2) [4]: 279.13 Å²
- collision cross section (N2) ([5]; [M+Na]+): 282.6 Å²
SMILES: CCCCCC/C=C\CCCCCCCCCC(=O)OC[C@H](COP(=O)([O-])OCC[N+](C)(C)C)OC(=O)CCCCCCCCCCCCC [PC(32:1)]

- collision cross section (N2) ([1]; [M+H]+): 268.71 Å²
- collision cross section (N2) ([1]; [M-H]-): 257.69 Å²
SMILES: CCCCCC/C=C\CCCCCCCC(=O)OCC(COP(=O)(O)OCCN)OC(=O)CCCCCCCC1CC1CCCCCC (stereo unspecified) [PE(33:2)]

- collision cross section (N2) ([1]; [M+H]+): 275.45 Å²
- collision cross section (N2) ([1]; [M-H]-): 263.99 Å²
SMILES: CCCCCCCC/C=C\CCCCCCCC(=O)OC(COC(=O)CCCCCCCCCCCCCCC)COP(=O)(O)OCCN (stereo unspecified) [PE(34:1)]

- collision cross section (N2) ([1]; [M+Na]+): 287.26 Å²
- collision cross section (N2) ([1]; [M-H]-): 273.44 Å²
SMILES: CCCCCCCCCCCCCCCC(=O)OCC(COP(=O)(O)OCC(O)CO)OC(=O)CCCCCCCC1CC1CCCCCCCC (stereo unspecified) [PG(35:1)]

- collision cross section (N2) ([2]; [M+H]+): 118 Å²
SMILES: O=C(O)[C@@H]1CCCN1 [Proline]

- collision cross section (N2) ([2]; [M+H]+): 164 Å²
SMILES: Nc1ncnc2c1ncn2[C@H]1C[C@H](O)[C@@H](COP(=O)(O)O)O1 [dAMP]
